In PubChem BioAssay (NCI) one finds GI50 and TGI data, which are given here for eleven compounds.

Molecules are shown by their SMILES.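 Values below derive from 48-hour exposures of cells grown in 96-well plates, with endpoints linearly interpolated between the two concentrations bracketing the appropriate inhibition level. GI50: concentration for 50% inhibition of growth. TGI: total growth inhibition.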

Some test systems named below: 786-0 renal; COLO 205 colon; HL-60(TB) leukemia; NCI-H23 lung; NCI/ADR-RES ovarian; OVCAR-4 ovarian; SF-295 CNS; SK-MEL-28 melanoma; UACC-257 melanoma; UO-31 renal.
Assay in all cases: growth of human tumour cells (NCI), 48 h

On to `COc1ccc(-c2nn3ncccc3c2-c2ccnc(Nc3ccc(Cl)c(C(F)(F)F)c3)n2)cc1`, for which the GI50 in the test on 786-0 renal is 11 µM; with COLO 205 colon, 12.7 µM; in the test on HL-60(TB) leukemia it was 11.9 µM; in the test with NCI-H23 lung, 10.6 µM; with NCI/ADR-RES ovarian, 7.62 µM; in the test with OVCAR-4 ovarian, 8.66 µM. In addition, the GI50 in the test with SF-295 CNS was 9.96 µM; in the test on SK-MEL-28 melanoma, 16.9 µM; in the test with UACC-257 melanoma, 11.5 µM; with UO-31 renal, 6.32 µM. Besides, the TGI in the test on 786-0 renal, with COLO 205 colon, in the test on HL-60(TB) leukemia, with NCI-H23 lung, with NCI/ADR-RES ovarian and in the test on OVCAR-4 ovarian was more than 25 µM throughout. The TGI in the test with SF-295 CNS, in the test on SK-MEL-28 melanoma, in the test with UACC-257 melanoma and in the test on UO-31 renal was more than 25 µM throughout.

`C=CCn1c2c(c3ccccc3c1=O)C(=O)c1ccccc1-2`: the TGI with 786-0 renal, with COLO 205 colon, in the test on HL-60(TB) leukemia, in the test on NCI-H23 lung, with NCI/ADR-RES ovarian and in the test on OVCAR-4 ovarian was more than 100 µM in each case. For the same compound, the TGI in the test on SF-295 CNS, in the test with SK-MEL-28 melanoma, with UACC-257 melanoma and in the test with UO-31 renal was more than 100 µM each time.

For the compound `COc1cc(-c2nn(-c3ccc(NC(=O)c4ccc(Cl)c(Cl)c4)cc3)cc2-c2ccncc2)ccc1Cl`, the GI50 is 2.05 µM with 786-0 renal; 3.62 µM in the test with COLO 205 colon; 8.03 µM in the test on HL-60(TB) leukemia; 38.4 µM with NCI-H23 lung; 7.16 µM with NCI/ADR-RES ovarian; 23.4 µM in the test with OVCAR-4 ovarian. Also, the GI50 with SF-295 CNS was 1.94 µM; in the test on SK-MEL-28 melanoma it was 40.3 µM; in the test on UACC-257 melanoma it was more than 100 µM; in the test with UO-31 renal it was 2.73 µM. In addition, the TGI in the test on 786-0 renal is 4.59 µM; in the test on COLO 205 colon, more than 100 µM; in the test with HL-60(TB) leukemia it was more than 100 µM; in the test with NCI-H23 lung, more than 100 µM; in the test on NCI/ADR-RES ovarian it was more than 100 µM; in the test with OVCAR-4 ovarian, more than 100 µM. Moreover, the TGI is 4.57 µM with SF-295 CNS, more than 100 µM in the test with SK-MEL-28 melanoma, more than 100 µM in the test on UACC-257 melanoma and 9.85 µM in the test with UO-31 renal.

For the compound `O=c1oc2cc(OS(=O)(=O)c3ccc(F)cc3)ccc2c2c1CCCCC2`, the GI50 in the test with 786-0 renal is more than 100 µM; with COLO 205 colon, 2.17 µM; with HL-60(TB) leukemia, more than 100 µM; with NCI-H23 lung, more than 100 µM; in the test with NCI/ADR-RES ovarian, more than 100 µM; in the test with OVCAR-4 ovarian, 5.76 µM. For the same compound, the GI50 with SF-295 CNS, in the test with SK-MEL-28 melanoma, in the test with UACC-257 melanoma and in the test with UO-31 renal was more than 100 µM in each case. Besides, the TGI in the test with 786-0 renal, with COLO 205 colon, in the test with HL-60(TB) leukemia, in the test on NCI-H23 lung, with NCI/ADR-RES ovarian and in the test on OVCAR-4 ovarian was more than 100 µM in each case. The TGI in the test on SF-295 CNS, with SK-MEL-28 melanoma, in the test with UACC-257 melanoma and in the test with UO-31 renal was more than 100 µM each time.

In the case of `CCOC(=O)c1ccc(NC(=O)N2CC(C)OC(C)C2)cc1` (stereo not given), the GI50 in the test on 786-0 renal, in the test on COLO 205 colon, in the test on HL-60(TB) leukemia, in the test on NCI-H23 lung, in the test with NCI/ADR-RES ovarian and in the test with OVCAR-4 ovarian was more than 100 µM each time. Moreover, the GI50 in the test on SF-295 CNS, with SK-MEL-28 melanoma, with UACC-257 melanoma and with UO-31 renal was more than 100 µM each time. Further, the TGI in the test on 786-0 renal, with COLO 205 colon, with HL-60(TB) leukemia, in the test with NCI-H23 lung, in the test with NCI/ADR-RES ovarian and with OVCAR-4 ovarian was more than 100 µM throughout. The TGI in the test with SF-295 CNS, in the test with SK-MEL-28 melanoma, in the test with UACC-257 melanoma and with UO-31 renal was more than 100 µM throughout.

As to `O=C(CCCCCCSc1nc(-c2ccccc2)cc(-c2ccc(Cl)cc2)n1)NO`, the GI50 in the test with 786-0 renal is 2.22 µM; in the test on COLO 205 colon it was 2.38 µM; in the test with HL-60(TB) leukemia it was 2.16 µM; in the test with NCI-H23 lung it was 1.88 µM; in the test with NCI/ADR-RES ovarian it was 0.596 µM; in the test with OVCAR-4 ovarian, 2.52 µM. Further, the GI50 is 2.45 µM in the test with SF-295 CNS, 2.94 µM in the test on SK-MEL-28 melanoma, 2.67 µM with UACC-257 melanoma and 0.905 µM in the test with UO-31 renal. The TGI in the test with 786-0 renal worked out at 6.92 µM; in the test with COLO 205 colon, 5.76 µM; in the test with HL-60(TB) leukemia, 4.84 µM; with NCI-H23 lung, 5.13 µM; in the test on NCI/ADR-RES ovarian, 8.84 µM; with OVCAR-4 ovarian, 13.5 µM. In addition, the TGI with SF-295 CNS came to 6.7 µM; in the test with SK-MEL-28 melanoma it was 12.1 µM; in the test on UACC-257 melanoma it was 11.4 µM; in the test with UO-31 renal, 2.65 µM.

For the compound `O=C(Nc1ccc(N2CCNCC2)cc1)c1[nH]ncc1Nc1ncnc2sc3c(c12)CCC3`, the GI50 was 0.254 µM in the test on 786-0 renal; 0.124 µM in the test on COLO 205 colon; 1.2 µM in the test on HL-60(TB) leukemia; 0.268 µM in the test with NCI-H23 lung; 1.48 µM in the test with NCI/ADR-RES ovarian; 0.321 µM with OVCAR-4 ovarian. Moreover, the GI50 was 0.359 µM with SF-295 CNS, 1 µM in the test on SK-MEL-28 melanoma, 0.478 µM with UACC-257 melanoma and 0.431 µM in the test with UO-31 renal. Besides, the TGI with 786-0 renal amounted to 1.52 µM; with COLO 205 colon, 1.31 µM; with HL-60(TB) leukemia, 3.28 µM; in the test with NCI-H23 lung, 1.85 µM; with NCI/ADR-RES ovarian, 3.7 µM; in the test on OVCAR-4 ovarian, 2.26 µM. In addition, the TGI was found to be 1.95 µM with SF-295 CNS, 2.29 µM in the test with SK-MEL-28 melanoma, 2.43 µM in the test on UACC-257 melanoma and 1.84 µM with UO-31 renal.

In the case of `COc1cc(O)c([C@@H]2C[C@H](CCc3ccc(O)cc3)O[C@H](c3ccc(O)cc3)C2)c(O)c1C(=O)/C=C/c1ccc(O)cc1`, the GI50 with 786-0 renal is 2.28 µM; in the test with COLO 205 colon it was 2.51 µM; in the test with HL-60(TB) leukemia, 2.13 µM; with NCI-H23 lung it was 2.57 µM; in the test on NCI/ADR-RES ovarian, 5.53 µM; in the test with OVCAR-4 ovarian, 3.8 µM. The GI50 was 3.83 µM in the test on SF-295 CNS, 3.28 µM with SK-MEL-28 melanoma, 3.82 µM in the test with UACC-257 melanoma and 2.9 µM with UO-31 renal. Moreover, the TGI came to 4.97 µM in the test on 786-0 renal; 5.4 µM with COLO 205 colon; 5.2 µM with HL-60(TB) leukemia; 5.71 µM in the test with NCI-H23 lung; 25.5 µM in the test on NCI/ADR-RES ovarian; 29.5 µM in the test on OVCAR-4 ovarian. Moreover, the TGI turned out to be 17.9 µM with SF-295 CNS, 12 µM in the test with SK-MEL-28 melanoma, 13.2 µM in the test with UACC-257 melanoma and 7.96 µM in the test with UO-31 renal.

Regarding `COc1cc2c(cc1OC)C(=O)/C(=C/c1cccc(OCC(=O)c3ccccc3)c1)C2`, the GI50 is 35.5 µM with 786-0 renal; 28 µM in the test with COLO 205 colon; 6.44 µM in the test with HL-60(TB) leukemia; 22.3 µM in the test with NCI-H23 lung; 6.93 µM with NCI/ADR-RES ovarian; 30.4 µM with OVCAR-4 ovarian. In addition, the GI50 is 5.06 µM in the test with SF-295 CNS, 58.4 µM with SK-MEL-28 melanoma, 49.1 µM in the test on UACC-257 melanoma and 6.93 µM with UO-31 renal. Also, the TGI with 786-0 renal was more than 100 µM; in the test on COLO 205 colon, more than 100 µM; with HL-60(TB) leukemia, 61.8 µM; in the test with NCI-H23 lung, more than 100 µM; with NCI/ADR-RES ovarian, more than 100 µM; in the test on OVCAR-4 ovarian, more than 100 µM. Besides, the TGI in the test on SF-295 CNS was 40.8 µM; in the test on SK-MEL-28 melanoma, more than 100 µM; in the test with UACC-257 melanoma it was more than 100 µM; in the test on UO-31 renal it was more than 100 µM.

With `O=C(CN1CCN(c2ncccn2)CC1)Nc1ccc(Cl)cc1C(=O)c1ccccc1Cl`, the GI50 in the test with 786-0 renal was 62 µM; in the test with COLO 205 colon it was more than 100 µM; in the test on HL-60(TB) leukemia, 25.3 µM; in the test with NCI-H23 lung, more than 100 µM; in the test with NCI/ADR-RES ovarian, more than 100 µM; in the test on OVCAR-4 ovarian, 43.9 µM. The GI50 with SF-295 CNS, in the test on SK-MEL-28 melanoma, in the test on UACC-257 melanoma and in the test with UO-31 renal was more than 100 µM in each case. The TGI in the test on 786-0 renal, in the test with COLO 205 colon, in the test on HL-60(TB) leukemia, in the test with NCI-H23 lung, in the test with NCI/ADR-RES ovarian and in the test on OVCAR-4 ovarian was more than 100 µM throughout. The TGI with SF-295 CNS, with SK-MEL-28 melanoma, in the test with UACC-257 melanoma and in the test with UO-31 renal was more than 100 µM each time.

With `N=C1C(c2nc(-c3ccc(Br)cc3)cs2)=C(O)CN1Cc1cccnc1`, the GI50 is 15.3 µM in the test on 786-0 renal; 11.9 µM in the test on COLO 205 colon; 3.42 µM with HL-60(TB) leukemia; 22.5 µM in the test with NCI-H23 lung; 16.3 µM in the test on NCI/ADR-RES ovarian; 25.1 µM with OVCAR-4 ovarian. Also, the GI50 with SF-295 CNS was 16.6 µM; with SK-MEL-28 melanoma it was 15.7 µM; in the test on UACC-257 melanoma, 27.8 µM; in the test on UO-31 renal it was 19.7 µM. Further, the TGI was 34.3 µM in the test on 786-0 renal; 38.4 µM with COLO 205 colon; 20.2 µM in the test with HL-60(TB) leukemia; more than 100 µM with NCI-H23 lung; more than 100 µM with NCI/ADR-RES ovarian; more than 100 µM with OVCAR-4 ovarian. The TGI is 81.3 µM with SF-295 CNS, 51.7 µM in the test with SK-MEL-28 melanoma, more than 100 µM in the test on UACC-257 melanoma and more than 100 µM in the test on UO-31 renal.
